Data set [1] relates to Ascites hepatoma Yoshida AH-130 cells. Put plainly: Yoshida AH-130 ascites hepatoma rat model of cancer cachexia. Format: in vivo, male Wistar rats. The following applies: for Locomotor activity 24 h day 11: Supermex system, marker for fatigue; for Locomotor activity 24 h day 11 / Food intake day 11 / Lean tissue gain without tumour / Lean tissue without tumour / Weight gain without tumour / Body weight without tumour: mean±SEM; for Lean tissue gain without tumour / Lean tissue without tumour / Weight gain without tumour / Body weight without tumour: end of study; for Body weight without tumour: oral gavage, twice daily. The text has this: Ascites hepatoma Yoshida AH-130 cells (10^8 cells) are inoculated into 180-200 g male Wistar rats. Alternatively animals receive saline injection only (sham). The animals are housed in groups of three. The day after inoculation animals are randomized into various groups and then receive twice daily treatment with either placebo or compounds over a period of up to 17 days. The primary endpoints of the study include assessment of body weight, body composition (with and without tumour) and survival. Organ weight is assessed at the end of the study (or after death) as a secondary endpoint. In addition locomotor activity is used to assess fatigue using Supermex system (Muromachi, Tokyo, Japan) over a period of 24 hours in cages where the animals are placed individually (type 3 cage); missing data (if due to death) are imputed as ‘zero’ activity; a sensitivity analysis without imputed points is additionally performed. Food intake is also measured. Results are expressed as mean±SEM at the end of the study except where stated otherwise. Doses represent total daily dose given by oral gavage.

For data set [2] the following is noted: cited from earlier work.
Data set [3] has as its target T1, 5-HT1a (Rattus norvegicus, UniProt P19327).
T1 construct: suppressant effects of 5-HT1a agonists on dorsal raphe neuronal firing; host or cells: dorsal raphe neurons (endogenous receptor)
T1 sequence (P19327 1-422): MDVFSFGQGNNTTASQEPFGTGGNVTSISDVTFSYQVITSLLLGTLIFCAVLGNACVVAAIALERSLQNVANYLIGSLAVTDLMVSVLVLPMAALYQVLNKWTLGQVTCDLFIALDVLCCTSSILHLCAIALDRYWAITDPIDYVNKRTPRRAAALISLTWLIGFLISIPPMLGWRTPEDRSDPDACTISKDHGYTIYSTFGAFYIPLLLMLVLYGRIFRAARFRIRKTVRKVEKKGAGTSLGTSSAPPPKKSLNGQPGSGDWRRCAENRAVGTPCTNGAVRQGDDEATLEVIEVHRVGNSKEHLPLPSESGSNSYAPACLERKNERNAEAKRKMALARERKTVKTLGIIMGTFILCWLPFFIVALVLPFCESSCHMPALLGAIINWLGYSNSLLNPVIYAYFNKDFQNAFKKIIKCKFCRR
The following applies: functional tests, Eur J Pharmacol. 1986; 128 (3): 295-8; cited from earlier work.

Setting [4] is: animal model of cancer cachexia, summary in words.

Read-outs that look alike come from different tables or passages of the source.

The values that follow come from US8716325B2, “Treatment of cachexia” (PsiOxus Therapeutics Limited, priority 2006, dated 2014).

Take `CC(C)NCC(O)COc1ccc(COCCOC(C)C)cc1` (centres unmarked) [Bisoprolol, reference compound]: in data set [1] (5 mg/kg/d oral gavage), the “Locomotor activity 24 h day 11” value came to 315 ± 58, the “Food intake day 11” value was determined as 16.00 ± 3.07 g, the “Lean tissue gain without tumour” value is -1.38 ± 11.31 g and the “Lean tissue without tumour” value is 158.10 ± 11.86 g. The “Weight gain without tumour” value in data set [1] (5 mg/kg/d oral gavage) is -5.46 ± 15.95 g. Also, the “Body weight without tumour” value in data set [1] (5 mg/kg/d total daily dose) was found to be 202.0 ± 16.04 g. In addition, in data set [1] (50 mg/kg/d oral gavage), the “Locomotor activity 24 h day 11” value was determined as 277 ± 39, the “Food intake day 11” value was found to be 9.94 ± 2.10 g, the “Lean tissue gain without tumour” value was -28.96 ± 6.64 g and the “Lean tissue without tumour” value was 124.77 ± 7.17 g. In addition, in data set [1] (50 mg/kg/d oral gavage), the “Weight gain without tumour” value was -30.30 ± 10.95 g. In addition, the “Body weight without tumour” value in data set [1] (50 mg/kg/d total daily dose) was 159.18 ± 9.64 g. In addition, the “Effect on locomotor activity, as a marker for fatigue” value in data set [1] (setting [4]) is listed as “neutral to negative”.
Take `CC(C)NC[C@H](O)COc1cccc2[nH]ccc12` [S-pindolol, S-(−)-1-(1H-indol-4-yloxy)-3-(1-methylethylamino)propan-2-ol]: in data set [1] (0.3 mg/kg/d oral gavage), the “Locomotor activity 24 h day 11” value amounted to 361 ± 38, the “Food intake day 11” value is listed as 7.75 ± 5.22 g, the “Lean tissue gain without tumour” value is -1.17 ± 15.84 g and the “Lean tissue without tumour” value was 152.37 ± 15.47 g. Moreover, in data set [1] (0.3 mg/kg/d oral gavage), the “Weight gain without tumour” value was -8.50 ± 19.19 g. In addition, in data set [1] (0.3 mg/kg/d total daily dose), the “Body weight without tumour” value is 178.89 ± 17.04 g. For the same molecule, in data set [1] (3 mg/kg/d oral gavage), the “Locomotor activity 24 h day 11” value is on record as 368 ± 50, the “Food intake day 11” value is 15.33 ± 3.84 g, the “Lean tissue gain without tumour” value was found to be 18.90 ± 16.06 g and the “Lean tissue without tumour” value stood at 171.99 ± 15.92 g. In data set [1] (3 mg/kg/d oral gavage), the “Weight gain without tumour” value is 17.30 ± 20.08 g. Moreover, the “Body weight without tumour” value in data set [1] (3 mg/kg/d total daily dose) is 215.10 ± 19.89 g. Also, in data set [1] (setting [4]), the “Effect on cachectic weight loss” value was “able to reduce cachectic weight loss”; the “Effect on locomotor activity, as a marker for fatigue” value is “positive effect on locomotor activity”; the “Effect on tumour weight” value is “reducing the tumour weight”. The “Effect on blood pressure” value in data set [2] (in vivo) is reported as “no alteration in blood pressure in a majority of healthy subjects”.
For `CC(C)NC[C@@H](O)COc1cccc2ccccc12` [(R)-propranolol, reference compound], in data set [3], the “Block of the suppressant effects of 5-HT1a agonists on dorsal raphe neuronal firing” value was “not”.
With `CC(C)NCC(O)COc1cccc2[nH]ccc12` (racemic) [racemic pindolol, pindolol, reference compound], in data set [2] (healthy subjects, similar dose of (S)-pindolol and racemic pindolol), the “Effect on blood pressure” value was “reducing diastolic blood pressure”.
As for `CC(C)NC[C@H](O)COc1cccc2ccccc12` [(S)-propranolol, (S)-1-isopropylamino-3-(1-naphthyloxy)-2-propanol], the “Block of the suppressant effects of 5-HT1a agonists on dorsal raphe neuronal firing” value in data set [3] is given as “blocked the suppressant effects”.
